Among the data in patent publication US11352330B2, “Phenoxymethyl derivatives” (Hoffmann-La Roche Inc., priority 2015, dated 2022) are IC50 values, retold here.

The target in this assay is human ATX (Homo sapiens (Human), UniProt Q13822). The assay can be described thus: Human ATX enzyme inhibition assay (fluorescence quenching, MR121 substrate). In kind it is biochemical. The conditions noted are these: human His-tagged ATX 30 nM, MR121 substrate 1 μM, 30° C. The method, then: Human ATX Enzyme Inhibition Assay
ATX inhibition was measured by a fluorescence quenching assay using a specifically labeled substrate analogue (MR121 substrate). To obtain this MR121 substrate, BOC and TBS protected 6-amino-hexanoic acid (R)-3-({2-[3-(2-{2-[2-(2-amino-ethoxy)-ethoxy]-ethoxy}-ethoxy)-propionylamino]-ethoxy}-hydroxy-phosphoryloxy)-2-hydroxy-propyl ester (Ferguson et al., Org Lett 2006, 8 (10), 2023) was labeled with MR121 fluorophore (CAS 185308-24-1, 1-(3-carboxypropyl)-11-ethyl-1,2,3,4,8,9,10,11-octahydro-dipyrido[3,2-b:2′,3′-i]phenoxazin-13-ium) on the free amine of the ethanolamine side and then, after deprotection, subsequently with tryptophan on the side of the aminohexanoic acid.
Assay working solutions were made as follows:
Assay buffer (50 mM Tris-HCl, 140 mM NaCl, 5 mM KCl, 1 mM CaCl2, 1 mM MgCl2, 0.01% Triton-X-100, pH 8.0;
ATX solution: ATX (human His-tagged) stock solution (1.08 mg/mL in 20 mM bicine, pH 8.5, 0.15 M NaCl, 10% glycerol, 0.3% CHAPS, 0.02% NaN3), diluted to 1.4-2.5× final concentration in assay buffer;
MR121 substrate solution: MR121 substrate stock solution (800 μM MR121 substrate in DMSO), diluted to 2-5× final concentration in assay buffer.
Test compounds (10 mM stock in DMSO, 8 μL) were obtained in 384 well sample plates (Corning Costar #3655) and diluted with 8 μL DMSO. Row-wise serial dilutions were made by transferring 8 μL cpd solution to the next row up to row O. The compound and control solutions were mixed five times and 2 μL were transferred to 384 well assay plates (Corning Costar #3702). Then, 15 μL of 41.7 nM ATX solution was added (30 nM final concentration), mixed five times and then incubated for 15 minutes at 30° C. 10 μL of MR121 substrate solution was added (1 μM final concentration), mixed 30 times and then incubated for 15 minutes at 30° C.

A word on the IC50: it is the concentration at which inhibition is half-maximal. Lower therefore signals inhibition by little substance. In turn, `Cc1cc(OCc2n[nH]c(=O)n2C)c(-c2cc(C(=O)O)ccc2C)cc1Cl` [Example B50, 3-[5-chloro-4-methyl-2-[(4-methyl-5-oxo-1H-1,2,4-triazol-3-yl)methoxy]phenyl]-4-methylbenzoic acid] displayed an IC50 of 173 nM. With `Cc1cc(OCc2n[nH]c(=O)n2C)c(-c2cc(C(=O)N(C)C)ccc2C)cc1Cl` [Example B51, 3-[5-Chloro-4-methyl-2-[(4-methyl-5-oxo-1H-1,2,4-triazol-3-yl)methoxy]phenyl]-N,N,4-trimethylbenzamide], the IC50 is 17 nM. To `Cc1cc(OCc2n[nH]c(=O)n2C)c(-c2cc(C(N)=O)ccc2OC(F)(F)F)cc1Cl` [Example B52] belongs 12 nM. With `COc1ncccc1-c1cc(Cl)c(C)cc1OCc1n[nH]c(=O)n1C` [Example B53], the IC50 turned out to be 42 nM. `COc1ncccc1-c1cc(C#N)c(Cl)cc1OCc1n[nH]c(=O)n1C` [Example B54] yielded a 50% inhibitory concentration (IC50) of 29 nM.

Regarding `CCOc1ccc(F)c(-c2cc(Cl)c(C)cc2OCc2n[nH]c(=O)n2C)c1` [Example B55], the IC50 worked out at 9 nM. The compound `Cc1cc(OCc2n[nH]c(=O)n2C)c(-c2cc(OC(C)C)ccc2F)cc1Cl` [Example B57] came in with an IC50 of 11 nM. `Cc1cc(OCc2n[nH]c(=O)n2C)c(-c2cc(OCC(C)C)ccc2F)cc1Cl` [Example B58]: the concentration for half-maximal inhibition (IC50) was found to be 16 nM. In the case of `COc1ccc(C(F)(F)F)cc1-c1cc(Cl)c(C)cc1OCc1n[nH]c(=O)n1C` [Example B59], half-maximal inhibition (IC50) required 25 nM.

`COc1ccc(C(C)C)cc1-c1cc(Cl)c(C)cc1OCc1n[nH]c(=O)n1C` [Example B60] returned an IC50 of 11 nM. Regarding `Cn1c(COc2cc(Cl)c(C#N)cc2-c2cc(C(=O)N3CCOCC3)ccc2F)n[nH]c1=O` [Example B61], the IC50 amounted to 10 nM. In turn, `Cc1cc(OCc2n[nH]c(=O)n2C)c(-c2cc(C(=O)N3CCCC3)ccc2F)cc1Cl` [Example B62] displayed an IC50 of 9 nM.

With `Cc1cc(OCc2n[nH]c(=O)n2C)c(-c2cc(C(=O)N(C)C3CC3)ccc2F)cc1Cl` [Example B63], inhibition was half-maximal at 10 nM (IC50).

The compound `Cc1cc(OCc2n[nH]c(=O)n2C)c(-c2cc(C(=O)N(C)CCO)ccc2F)cc1Cl` [Example B64] displayed an IC50 of 21 nM. On to `Cc1cc(OCc2n[nH]c(=O)n2C)c(-c2cc(C(=O)N3CCN(C)C(=O)C3)ccc2F)cc1Cl` [Example B65], for which 13 nM corresponded to half-maximal inhibition (IC50). Consider `Cc1cc(OCc2n[nH]c(=O)n2C)c(-c2cc(C(=O)N(C)C3CCCC3)ccc2F)cc1Cl` [Example B66], for which the IC50 came to 7 nM.

For the compound `Cc1cc(OCc2n[nH]c(=O)n2C)c(-c2cc(OCC3CCOC3)ccc2F)cc1Cl` (stereo not drawn) [Example B67], inhibition was half-maximal at 6 nM (IC50). On to `Cc1cc(OCc2n[nH]c(=O)n2C)c(-c2cc(C(=O)N(C)Cc3cccs3)ccc2F)cc1Cl` [Example B68], for which inhibition was half-maximal at 7 nM (IC50). Consider `Cc1cc(OCc2n[nH]c(=O)n2C)c(-c2cc(C(=O)N3CCCCC3)ccc2F)cc1Cl` [Example B69], for which 9 nM corresponded to half-maximal inhibition (IC50). To `Cc1cc(OCc2n[nH]c(=O)n2C)c(-c2cc(C(=O)N(C)CC3CC3)ccc2F)cc1Cl` [Example B70] belongs 4 nM; to `Cc1cc(OCc2n[nH]c(=O)n2C)c(-c2cc(C(=O)N(C)Cc3ccccn3)ccc2F)cc1Cl` [Example B71], 9 nM; to `Cc1cc(OCc2n[nH]c(=O)n2C)c(-c2cc(OCC3CCOCC3)ccc2F)cc1Cl` [Example B72], 10 nM. Compound `COCCN(C)C(=O)c1ccc(F)c(-c2cc(Cl)c(C)cc2OCc2n[nH]c(=O)n2C)c1` [Example B73] returned an IC50 of 9 nM. On to `Cc1cc(OCc2n[nH]c(=O)n2C)c(-c2cc(OCC3CCCO3)ccc2F)cc1Cl` (stereo not drawn) [Example B74], for which the midpoint of inhibition, the IC50, lay at 6 nM. To `Cc1cc(OCc2n[nH]c(=O)n2C)c(-c2cc(OCC(=O)N(C)C)ccc2F)cc1Cl` [Example B75] belongs 10 nM; to `Cc1cc(OCc2n[nH]c(=O)n2C)c(-c2cc(CN3CC(=O)N(C)CC3=O)ccc2F)cc1Cl` [Example B76], 11 nM; to `Cc1cc(OCc2n[nH]c(=O)n2C)c(-c2c(F)ccc3c2oc(=O)n3C)cc1Cl` [Example B77], 15 nM. In turn, `COCC(=O)N(C)Cc1ccc(F)c(-c2cc(Cl)c(C)cc2OCc2n[nH]c(=O)n2C)c1` [Example B78] yielded an IC50 of 7 nM. On to `Cc1cc(OCc2n[nH]c(=O)n2C)c(-c2cc(CNC(=O)C3CC3)ccc2F)cc1Cl` [Example B79], for which inhibition was half-maximal at 10 nM (IC50). `Cc1cc(OCc2n[nH]c(=O)n2C)c(-c2cc(CN(C)C(=O)C3CC3)ccc2F)cc1Cl` [Example B80] gave an IC50 of 5 nM. Consider `Cc1cc(OCc2n[nH]c(=O)n2C)c(-c2cc(CN3CCCC3=O)ccc2F)cc1Cl` [Example B81], for which the IC50 was determined as 3 nM. The compound `Cc1cc(OCc2n[nH]c(=O)n2C)c(-c2cc(CN3CCOC3=O)ccc2F)cc1Cl` [Example B82] gave an IC50 of 8 nM.

`COCC(=O)NCc1ccc(F)c(-c2cc(Cl)c(C)cc2OCc2n[nH]c(=O)n2C)c1` [Example B83]: the IC50 was 8 nM. For the compound `Cn1c(COc2cc(Cl)c(C#N)cc2-c2ccccc2F)n[nH]c1=O` [Example B84], it took 19 nM to reach half-maximal inhibition (IC50).

On to `Cn1c(COc2cc(Cl)c(C#N)cc2-c2cccc(F)c2)n[nH]c1=O` [Example B85], for which half-maximal inhibition (IC50) was put at 21 nM. As to `Cc1cc(OCc2n[nH]c(=O)n2C)c(-c2cc(C#N)ccc2OC(F)(F)F)cc1Cl` [Example B86], the midpoint of inhibition, the IC50, lay at 49 nM. `Cn1c(COc2cc(Cl)c(C#N)cc2-c2cc(OCC3CCCO3)ccc2F)n[nH]c1=O` (stereo not drawn) [Example B87] gave an IC50 of 5 nM. As for `COc1cccc(-c2cc(C#N)c(Cl)cc2OCc2n[nH]c(=O)n2C)c1F` [Example B88], the figure is 1 nM; as for `CC(C)Oc1ccc(F)c(-c2cc(C#N)c(Cl)cc2OCc2n[nH]c(=O)n2C)c1` [Example B89], 4 nM; as for `COc1cccc(-c2cc(Cl)c(C)cc2OCc2n[nH]c(=O)n2C)c1F` [Example B90], 7 nM.

For the compound `Cn1c(COc2cc(Cl)c(C#N)cc2-c2cccc(F)c2F)n[nH]c1=O` [Example B91], the IC50 stood at 4 nM.

In the case of `Cc1cc(OCc2n[nH]c(=O)n2C)c(-c2cc(OC3CC3)ccc2F)cc1Cl` [Example B92], the concentration for half-maximal inhibition (IC50) amounted to 1 nM. `Cn1c(COc2cc(Cl)c(C#N)cc2-c2cc(Cl)ccc2F)n[nH]c1=O` [Example B93] came in with an IC50 of 5 nM. `Cn1c(COc2cc(Cl)c(C#N)cc2-c2cc(F)ccc2F)n[nH]c1=O` [Example B94] had an IC50 of 5 nM.

Regarding `Cn1c(COc2cc(Cl)c(C#N)cc2-c2cc(OC3CC3)ccc2F)n[nH]c1=O` [Example B95], the 50% inhibitory concentration (IC50) is 6 nM.

With `Cn1c(COc2cc(Cl)c(C#N)cc2-c2cc(C(F)(F)F)ccc2F)n[nH]c1=O` [Example B96], half-maximal inhibition (IC50) was put at 37 nM. As for `Cn1c(COc2cc(Cl)c(C#N)cc2-c2cc(OC(F)(F)F)ccc2F)n[nH]c1=O` [Example B97, 2-chloro-5-[2-fluoro-5-(trifluoromethoxy)phenyl]-4-[(4-methyl-5-oxo-1H-1,2,4-triazol-3-yl)methoxy]benzonitrile], the figure is 8 nM. On to `Cn1c(COc2cc(Cl)c(C#N)cc2-c2cc(OCC(F)(F)F)ccc2F)n[nH]c1=O` [Example B98, 2-chloro-5-[2-fluoro-5-(2,2,2-trifluoroethoxy)phenyl]-4-[(4-methyl-5-oxo-1H-1,2,4-triazol-3-yl)methoxy]benzonitrile], for which the IC50 was 9 nM. For `Cc1cc(OCc2ccc(=O)[nH]n2)c(C(C)C)cc1Cl` [Example C1, 3-[(4-Chloro-5-methyl-2-propan-2-ylphenoxy)methyl]-1H-pyridazin-6-one], the IC50 was 19 nM. `Cc1cc(OCc2ccc(=O)[nH]n2)c(C2CC2)cc1Cl` [Example C2, 3-[(4-Chloro-2-cyclopropyl-5-methylphenoxy)methyl]-1H-pyridazin-6-one] registered an IC50 of 22 nM. As for `CC(C)c1cc(Cl)c(F)cc1OCc1ccc(=O)[nH]n1` [Example C3, 3-[(4-chloro-5-fluoro-2-propan-2-ylphenoxy)methyl]-1H-pyridazin-6-one], the figure is 4 nM.

Compound `Cc1cc(C(C)C)c(OCc2ccc(=O)[nH]n2)cc1Cl` [Example C4, 3-[(5-chloro-4-methyl-2-propan-2-ylphenoxy)methyl]-1H-pyridazin-6-one] gave an IC50 of 3 nM. In the case of `Cc1cc(OCc2ccc(=O)[nH]n2)c(C2CCC2)cc1Cl` [Example C5, 3-[(4-chloro-2-cyclobutyl-5-methylphenoxy)methyl]-1H-pyridazin-6-one], the IC50 was 1 nM.

Compound `Cc1cc(OCc2ccc(=O)[nH]n2)c(C2CCCCC2)cc1Cl` [Example C6, 3-[(4-chloro-2-cyclohexyl-5-methylphenoxy)methyl]-1H-pyridazin-6-one] had an IC50 of 7 nM.
